In ChEMBL document CHEMBL1759888, “Biological evaluation of polyhalo 1,3-diazaheterocycle fused isoquinolin-1(2H)-imine derivatives” (Eur J Med Chem, 2011):
Converted amounts (≈) assume the structure as drawn.

tested on: SK-OV-3; assay: Anticancer activity against human SKOV3 cells after 72 hrs by MTT assay; settings: SK-OV-3, 72 h

Compound | IC50
N#Cc1c(Cl)c(Cl)c2c(C(=O)c3ccc(Cl)cc3)c3n(c(=N)c2c1Cl)CCN3 | 31.4 µg/mL (≈ 69.4 µM)
N#Cc1c(F)c(F)c2c(C(=O)c3ccccc3)c3n(c(=N)c2c1F)CCO3 | 0.2 µg/mL (≈ 0.542 µM)
N#Cc1c(F)c(F)c2c(C(=O)c3ccccc3)c3n(c(=N)c2c1F)CCCN3 | 16.4 µg/mL (≈ 42.9 µM)
CC(=O)c1c2n(c(=N)c3c(F)c(C#N)c(F)c(F)c13)CCN2 | 0.02 µg/mL (≈ 0.0653 µM)
N#Cc1c(F)c(Cl)c2c(C(=O)c3ccc(Cl)cc3)c3n(c(=N)c2c1F)CCCN3 | 17.1 µg/mL (≈ 39.5 µM)
CCOC(=O)c1c2n(c(=N)c3c(F)c(C#N)c(F)c(Cl)c13)CCN2 | 0.05 µg/mL (≈ 0.142 µM)
N#Cc1c(F)c(Cl)c2c(C(=O)c3ccccc3)c3n(c(=N)c2c1F)CCN3 | 5.8 µg/mL (≈ 15.1 µM)
CC(=O)c1c2n(c(=N)c3c(Cl)c(C#N)c(Cl)c(Cl)c13)CCN2 | 78.4 µg/mL (≈ 220 µM)

tested on: HL-60; assay: Anticancer activity against human HL60 cells after 48 hrs by MTT assay; settings: HL-60, 48 h

Compound | IC50
N#Cc1c(Cl)c(Cl)c2c(C(=O)c3ccc(Cl)cc3)c3n(c(=N)c2c1Cl)CCN3 | 2.6 µg/mL (≈ 5.75 µM)
N#Cc1c(F)c(F)c2c(C(=O)c3ccccc3)c3n(c(=N)c2c1F)CCO3 | 0.008 µg/mL (≈ 0.0217 µM)
N#Cc1c(F)c(F)c2c(C(=O)c3ccccc3)c3n(c(=N)c2c1F)CCCN3 | 0.3 µg/mL (≈ 0.785 µM)
CC(=O)c1c2n(c(=N)c3c(F)c(C#N)c(F)c(F)c13)CCN2 | 0.02 µg/mL (≈ 0.0653 µM)
N#Cc1c(F)c(Cl)c2c(C(=O)c3ccc(Cl)cc3)c3n(c(=N)c2c1F)CCCN3 | 0.2 µg/mL (≈ 0.462 µM)
CCOC(=O)c1c2n(c(=N)c3c(F)c(C#N)c(F)c(Cl)c13)CCN2 | 0.003 µg/mL (≈ 0.00851 µM)
N#Cc1c(F)c(Cl)c2c(C(=O)c3ccccc3)c3n(c(=N)c2c1F)CCN3 | 0.1 µg/mL (≈ 0.26 µM)
CC(=O)c1c2n(c(=N)c3c(Cl)c(C#N)c(Cl)c(Cl)c13)CCN2 | 4.7 µg/mL (≈ 13.2 µM)

tested on: K562; assay: Anticancer activity against human K562 cells after 48 hrs by MTT assay; settings: K562, 48 h

Compound | IC50
N#Cc1c(Cl)c(Cl)c2c(C(=O)c3ccc(Cl)cc3)c3n(c(=N)c2c1Cl)CCN3 | 2.4 µg/mL (≈ 5.31 µM)
N#Cc1c(F)c(F)c2c(C(=O)c3ccccc3)c3n(c(=N)c2c1F)CCO3 | 0.0002 µg/mL (≈ 0.000542 µM)
N#Cc1c(F)c(F)c2c(C(=O)c3ccccc3)c3n(c(=N)c2c1F)CCCN3 | 0.02 µg/mL (≈ 0.0523 µM)
CC(=O)c1c2n(c(=N)c3c(F)c(C#N)c(F)c(F)c13)CCN2 | 0.1 µg/mL (≈ 0.327 µM)
N#Cc1c(F)c(Cl)c2c(C(=O)c3ccc(Cl)cc3)c3n(c(=N)c2c1F)CCCN3 | 0.3 µg/mL (≈ 0.692 µM)
CCOC(=O)c1c2n(c(=N)c3c(F)c(C#N)c(F)c(Cl)c13)CCN2 | 0.0008 µg/mL (≈ 0.00227 µM)
N#Cc1c(F)c(Cl)c2c(C(=O)c3ccccc3)c3n(c(=N)c2c1F)CCN3 | 0.4 µg/mL (≈ 1.04 µM)
CC(=O)c1c2n(c(=N)c3c(Cl)c(C#N)c(Cl)c(Cl)c13)CCN2 | 3.6 µg/mL (≈ 10.1 µM)

tested on: HepG2; assay: Anticancer activity against human HepG2 cells after 72 hrs by MTT assay; settings: HepG2, 72 h

Compound | IC50
N#Cc1c(Cl)c(Cl)c2c(C(=O)c3ccc(Cl)cc3)c3n(c(=N)c2c1Cl)CCN3 | 37.6 µg/mL (≈ 83.2 µM)
N#Cc1c(F)c(F)c2c(C(=O)c3ccccc3)c3n(c(=N)c2c1F)CCO3 | 0.1 µg/mL (≈ 0.271 µM)
N#Cc1c(F)c(F)c2c(C(=O)c3ccccc3)c3n(c(=N)c2c1F)CCCN3 | 1.1 µg/mL (≈ 2.88 µM)
CC(=O)c1c2n(c(=N)c3c(F)c(C#N)c(F)c(F)c13)CCN2 | 3.1 µg/mL (≈ 10.1 µM)
N#Cc1c(F)c(Cl)c2c(C(=O)c3ccc(Cl)cc3)c3n(c(=N)c2c1F)CCCN3 | 2.1 µg/mL (≈ 4.85 µM)
CCOC(=O)c1c2n(c(=N)c3c(F)c(C#N)c(F)c(Cl)c13)CCN2 | 1.5 µg/mL (≈ 4.25 µM)
N#Cc1c(F)c(Cl)c2c(C(=O)c3ccccc3)c3n(c(=N)c2c1F)CCN3 | 0.3 µg/mL (≈ 0.78 µM)
CC(=O)c1c2n(c(=N)c3c(Cl)c(C#N)c(Cl)c(Cl)c13)CCN2 | 503 µg/mL (≈ 1410 µM)

tested on: not listed separately; assay: Lipophilicity, log P of the compound; format: physicochemical; settings: octanol/water

Compound | logP
N#Cc1c(Cl)c(Cl)c2c(C(=O)c3ccc(Cl)cc3)c3n(c(=N)c2c1Cl)CCN3 | 4.76
N#Cc1c(F)c(F)c2c(C(=O)c3ccccc3)c3n(c(=N)c2c1F)CCO3 | 2.57
N#Cc1c(F)c(F)c2c(C(=O)c3ccccc3)c3n(c(=N)c2c1F)CCCN3 | 2.71
CC(=O)c1c2n(c(=N)c3c(F)c(C#N)c(F)c(F)c13)CCN2 | 1.03
N#Cc1c(F)c(Cl)c2c(C(=O)c3ccc(Cl)cc3)c3n(c(=N)c2c1F)CCCN3 | 4.08
CCOC(=O)c1c2n(c(=N)c3c(F)c(C#N)c(F)c(Cl)c13)CCN2 | 2.68
N#Cc1c(F)c(Cl)c2c(C(=O)c3ccccc3)c3n(c(=N)c2c1F)CCN3 | 3.27
CC(=O)c1c2n(c(=N)c3c(Cl)c(C#N)c(Cl)c(Cl)c13)CCN2 | 2.43

tested on: A-431; assay: Anticancer activity against human A431 cells after 72 hrs by MTT assay; settings: A-431, 72 h

Compound | IC50
N#Cc1c(Cl)c(Cl)c2c(C(=O)c3ccc(Cl)cc3)c3n(c(=N)c2c1Cl)CCN3 | 20.3 µg/mL (≈ 44.9 µM)
N#Cc1c(F)c(F)c2c(C(=O)c3ccccc3)c3n(c(=N)c2c1F)CCO3 | 0.3 µg/mL (≈ 0.812 µM)
N#Cc1c(F)c(F)c2c(C(=O)c3ccccc3)c3n(c(=N)c2c1F)CCCN3 | 2.4 µg/mL (≈ 6.28 µM)
CC(=O)c1c2n(c(=N)c3c(F)c(C#N)c(F)c(F)c13)CCN2 | 4.4 µg/mL (≈ 14.4 µM)
N#Cc1c(F)c(Cl)c2c(C(=O)c3ccc(Cl)cc3)c3n(c(=N)c2c1F)CCCN3 | 2.8 µg/mL (≈ 6.46 µM)
CCOC(=O)c1c2n(c(=N)c3c(F)c(C#N)c(F)c(Cl)c13)CCN2 | 2.2 µg/mL (≈ 6.24 µM)
N#Cc1c(F)c(Cl)c2c(C(=O)c3ccccc3)c3n(c(=N)c2c1F)CCN3 | 4.8 µg/mL (≈ 12.5 µM)
CC(=O)c1c2n(c(=N)c3c(Cl)c(C#N)c(Cl)c(Cl)c13)CCN2 | 308 µg/mL (≈ 866 µM)
